Reference: patent US5912264A, “6-halo-or nitrate-substituted paclitaxels” (Bristol-Myers Squibb Company, priority 1998, dated 1999)
Like-named read-outs stand apart in the source and are kept apart here.

What was measured:
M109 lung carcinoma = experiment: Mice M109 Model (In-Vivo), median survival time % T/C; parameters: species or system mice (Balb/c x DBA/2 F1 hybrid); settings: Mus musculus, ip, days 1, 5 and 9 or days 5 and 8 post-implant, median survival T/C x 100
Description: Balb/c x DBA/2 F1 hybrid mice were implanted intraperitoneally, as described by William Rose in Evaluation of Madison 109 Lung Carcinoma as a Modelfor Screening Antitumor Drugs, Cancer Treatment Reports, 65, No. 3-4 (1981), with 0.5 mL of a 2% (w/v) brei of M109 lung carcinoma.
Mice were treated with compounds under study by receiving intraperitoneal injections of various doses on either days 1, 5 and 9 post-tumor implant or days 5 and 8 post-implant. Mice were followed daily for survival until approximately 75-90 days post-tumor implant. One group of mice per experiment remained untreated and served as the control group.
Median survival times of compound-treated (T) mice were compared to the median survival time of the control (C) mice. The ratio of the two values for each compound-treated group of mice was multiplied by 100 and expressed as a percentage (i.e. % T/C) in the following Table II for representative compounds.

[1] = tested on: HCT-116 human colon carcinoma cells; experiment: Cytotoxicity (in vitro) in HCT-116 human colon carcinoma cells, MTS assay; type: cell-based; settings: read-out: IC50 (nM) HCT 116
Description: Cytoxicity was assessed in HCT-116 human colon carcinoma cells by MTS (3-(4,5-dimethylthiazol-2-yl)-5-(3-carboxymethoxyphenyl)-2-(4-sulphenyl)-2H-tetrazolium, inner salt) assay as reported in T. L. Riss, et. al., "Comparison of MTT, XTT, and a novel tetrazolium compound MTS for in vitro proliferation and chemosensitivity assays.," Mol. Biol. Cell 3 (Suppl.):184a, 1992. Cells were plated at 4,000 cell/well in 96 well microtiter plates and 24 hours later drugs were added and serial diluted. The cells were incubated at 37° form 72 hours at which time the tetrazolium dye, MTS at 333 μg/ml (final concentration), in combination with the electron coupling agent phenazine methosulfate at 25 μM (final concentration) was added. A dehydrogenase enzyme in live cells reduces the MTS to a form that absorbs light at […] which can be quantitated spectrophotometrically. The greater the absorbance the greater the number of live cells. The results are expressed as an IC50, which is the drug concentration required to inhibit cell proliferation (i.e. absorbance at 450 nm) to 50% of that of untreated control cells. The IC50 values for compounds evaluated in this assay are evaluated in Table I.

[2] = in vivo animal models; cited from earlier work
[3] = HCT-116, 72 hours, MTS, inhibition of cell proliferation to 50% of untreated control

Molecule CC(=O)O[C@H]1C(=O)[C@]2(C)C[C@@H](I)[C@H]3OC[C@@]3(OC(C)=O)[C@H]2[C@H](OC(=O)c2ccccc2)[C@]2(O)C[C@H](OC(=O)[C@H](O)[C@@H](NC(=O)c3ccccc3)c3ccccc3)C(C)=C1C2(C)C [Iq, 7-Deoxy-6-β-Iodopaclitaxel] has a response vs control in vivo at 50 mg/kg (M109 lung carcinoma) of 129% and an IC50 ([1]; HCT-116, 72 h) of 2.24 nM.

For CC(=O)O[C@H]1C(=O)[C@@]2(C)[C@H]([C@H](OC(=O)c3ccccc3)[C@]3(O)C[C@H](OC(=O)[C@H](O)[C@@H](NC(=O)c4ccccc4)c4ccccc4)C(C)=C1C3(C)C)[C@]1(OC(C)=O)CO[C@@H]1[C@@H](Br)[C@@H]2O [Ie, 6α-Bromopaclitaxel], the response vs control in vivo at 200 mg/kg (M109 lung carcinoma; dose 200 mg/kg) was 214% and the IC50 [1, 3] was 2.6 nM.

In the case of CC(=O)O[C@H]1C(=O)[C@@]2(C)[C@H]([C@H](OC(=O)c3ccccc3)[C@]3(O)C[C@H](OC(=O)[C@H](O)[C@@H](NC(=O)c4ccccc4)c4ccccc4)C(C)=C1C3(C)C)[C@]1(OC(C)=O)CO[C@@H]1C[C@@H]2O [paclitaxel], the antitumor activity [2] is listed as “excellent antitumor activity in in vivo animal models” and the IC50 ([1]; HCT-116, 72 h) is listed as 1.53 to 2.73 nM.

Work on CO[C@H]1[C@H](F)[C@H]2OC[C@@]2(OC(C)=O)[C@H]2[C@H](OC(=O)c3ccccc3)[C@]3(O)C[C@H](OC(=O)[C@H](O)[C@@H](NC(=O)OC(C)(C)C)c4ccccc4)C(C)=C([C@@H](OC(C)=O)C(=O)[C@@]21C)C3(C)C [In, 3'N-desbenzoyl-3'N-t-Butoxycarbonyl-7-O-methyl-6α-Fluoropaclitaxel] yielded a response vs control in vivo at 25 mg/kg (M109 lung carcinoma) of 144%.

COCO[C@H]1[C@H](F)[C@H]2OC[C@@]2(OC(C)=O)[C@H]2[C@H](OC(=O)c3ccccc3)[C@]3(O)C[C@H](OC(=O)[C@H](O)[C@@H](NC(=O)c4ccccc4)c4ccccc4)C(C)=C([C@@H](OC(C)=O)C(=O)[C@@]21C)C3(C)C [Ib, 7-O-Methoxymethyl-6α-Fluoropaclitaxel] gave a response vs control in vivo at 100 mg/kg (M109 lung carcinoma) of 162% and an IC50 ([1]; HCT-116, 72 h) of 1.3 nM.

CSCO[C@H]1[C@H](F)[C@H]2OC[C@@]2(OC(C)=O)[C@H]2[C@H](OC(=O)c3ccccc3)[C@]3(O)C[C@H](OC(=O)[C@H](O)[C@@H](NC(=O)OC(C)(C)C)c4ccccc4)C(C)=C([C@@H](OC(C)=O)C(=O)[C@@]21C)C3(C)C [Im, 3'N-desbenzoyl-3'N-t-Butoxycarbonyl-7-O-methylthiomethyl-6α-Fluoropaclitaxel] showed an IC50 [1, 3] of 1 nM.

Molecule CSCO[C@H]1[C@H](O[N+](=O)[O-])[C@H]2OC[C@@]2(OC(C)=O)[C@H]2[C@H](OC(=O)c3ccccc3)[C@]3(O)C[C@H](OC(=O)[C@H](O)[C@@H](NC(=O)c4ccccc4)c4ccccc4)C(C)=C([C@@H](OC(C)=O)C(=O)[C@@]21C)C3(C)C [Ih, 7-O-Methylthiomethylpaclitaxel-6α-nitrate] has a response vs control in vivo at 195 mg/kg (M109 lung carcinoma) of 132% and an IC50 ([1]; HCT-116, 72 h) of 7.35 nM.

With CC(=O)O[C@H]1C(=O)[C@]2(C)C[C@@H](Br)[C@H]3OC[C@@]3(OC(C)=O)[C@H]2[C@H](OC(=O)c2ccccc2)[C@]2(O)C[C@H](OC(=O)[C@H](O)[C@@H](NC(=O)c3ccccc3)c3ccccc3)C(C)=C1C2(C)C [Ip, 7-Deoxy-6-β-Bromopaclitaxel] the response vs control in vivo at 50 mg/kg (M109 lung carcinoma) was 172% and the IC50 ([1]; HCT-116, 72 h) was 0.72 nM.

CC(=O)O[C@H]1C(=O)[C@@]2(C)[C@H]([C@H](OC(=O)c3ccccc3)[C@]3(O)C[C@H](OC(=O)[C@H](O)[C@@H](NC(=O)c4ccccc4)c4ccccc4)C(C)=C1C3(C)C)[C@]1(OC(C)=O)CO[C@@H]1[C@@H](O[N+](=O)[O-])[C@@H]2O [If, paclitaxel-6α-nitrate] showed a response vs control in vivo at 100 mg/kg (M109 lung carcinoma) of 132% and an IC50 ([1]; HCT-116, 72 h) of 1.5 nM.

CC(=O)O[C@H]1C(=O)[C@@]2(C)[C@H]([C@H](OC(=O)c3ccccc3)[C@]3(O)C[C@H](OC(=O)[C@H](O)[C@@H](NC(=O)OC(C)(C)C)c4ccccc4)C(C)=C1C3(C)C)[C@]1(OC(C)=O)CO[C@@H]1[C@@H](F)[C@@H]2O [Ik, 3'N-desbenzoyl-3'N-t-Butoxycarbonyl-6α-Fluoropaclitaxel] showed a response vs control in vivo at 100 mg/kg (M109 lung carcinoma) of 269% and an IC50 ([1]; HCT-116, 72 h) of 0.2 nM.

With COCO[C@H]1[C@H](O[N+](=O)[O-])[C@H]2OC[C@@]2(OC(C)=O)[C@H]2[C@H](OC(=O)c3ccccc3)[C@]3(O)C[C@H](OC(=O)[C@H](O)[C@@H](NC(=O)c4ccccc4)c4ccccc4)C(C)=C([C@@H](OC(C)=O)C(=O)[C@@]21C)C3(C)C [Ii, 7-O-Methoxymethylpaclitaxel-6α-nitrate] the response vs control in vivo at 195 mg/kg (M109 lung carcinoma) was 141% and the IC50 ([1]; HCT-116, 72 h) was 4.95 nM.

CC(=O)O[C@H]1C(=O)[C@@]2(C)[C@H]([C@H](OC(=O)c3ccccc3)[C@]3(O)C[C@H](OC(=O)[C@H](O)[C@@H](NC(=O)c4ccccc4)c4ccccc4)C(C)=C1C3(C)C)[C@]1(OC(C)=O)CO[C@@H]1[C@@H](F)[C@@H]2O [Ia, 6α-Fluoropaclitaxel] gave an IC50 ([1]; HCT-116, 72 h) of 1.4 nM.

For COCO[C@H]1[C@H](F)[C@H]2OC[C@@]2(OC(C)=O)[C@H]2[C@H](OC(=O)c3ccccc3)[C@]3(O)C[C@H](OC(=O)[C@H](O)[C@@H](NC(=O)OC(C)(C)C)c4ccccc4)C(C)=C([C@@H](OC(C)=O)C(=O)[C@@]21C)C3(C)C [Il, 3'N-desbenzoyl-3'N-t-Butoxycarbonyl-7-O-methoxymethyl-6a-Fluoropaclitaxel], the response vs control in vivo at 50 mg/kg (M109 lung carcinoma) was 187% and the IC50 ([1]; HCT-116, 72 h) was 2.5 nM.

CO[C@H]1[C@H](F)[C@H]2OC[C@@]2(OC(C)=O)[C@H]2[C@H](OC(=O)c3ccccc3)[C@]3(O)C[C@H](OC(=O)[C@H](O)[C@@H](NC(=O)c4ccccc4)c4ccccc4)C(C)=C([C@@H](OC(C)=O)C(=O)[C@@]21C)C3(C)C [Id, 7-O-Methyl-6α-Fluoropaclitaxel] showed a response vs control in vivo at 100 mg/kg (M109 lung carcinoma) of 147% and an IC50 ([1]; HCT-116, 72 h) of 0.83 nM.

CC(=O)O[C@H]1C(=O)[C@]2(C)C[C@@H](Cl)[C@H]3OC[C@@]3(OC(C)=O)[C@H]2[C@H](OC(=O)c2ccccc2)[C@]2(O)C[C@H](OC(=O)[C@H](O)[C@@H](NC(=O)c3ccccc3)c3ccccc3)C(C)=C1C2(C)C [Io, 7-Deoxy-6-β-Chloropaclitaxel] showed a response vs control in vivo at 25 mg/kg (M109 lung carcinoma) of 166% and an IC50 [1, 3] of 0.62 nM.

With CSCO[C@H]1[C@H](F)[C@H]2OC[C@@]2(OC(C)=O)[C@H]2[C@H](OC(=O)c3ccccc3)[C@]3(O)C[C@H](OC(=O)[C@H](O)[C@@H](NC(=O)c4ccccc4)c4ccccc4)C(C)=C([C@@H](OC(C)=O)C(=O)[C@@]21C)C3(C)C [Ic, 7-O-Meththiomethyl-6α-Fluoropaclitaxel] the response vs control in vivo at 100 mg/kg (M109 lung carcinoma) was 147% and the IC50 ([1]; HCT-116, 72 h) was 3.3 nM.

In the case of CC(=O)O[C@H]1C(=O)[C@@]2(C)[C@H]([C@H](OC(=O)c3ccccc3)[C@]3(O)C[C@H](OC(=O)[C@H](O)[C@@H](NC(=O)c4ccccc4)c4ccccc4)C(C)=C1C3(C)C)[C@]1(OC(C)=O)CO[C@@H]1[C@@H](Cl)[C@@H]2O [Ij, 6-α-Chloropaclitaxel], the response vs control in vivo at 100 mg/kg (M109 lung carcinoma) was 203% and the IC50 [1, 3] was 1.2 nM.
